We go through 2 compounds from US20220220152A1, “BIVALENT ANTAGONISTS OF INHIBITORS OF APOPTOSIS PROTEINS” (Hepagene Therapeutics (HK) Limited, priority 2019, published 2022).

One experiment concerns the target T1, cIAP2-BIR3 (Homo sapiens, UniProt Q13489).
T1 construct: cIAP2-BIR3; purchased Reaction Biology APT-11-372
As to the kind of experiment: cIAP2-BIR3 fluorescence polarization binding assay. Conditions: FP, probe AbuRPFK-5FAM (SM5F) 5 nM, cIAP2-BIR3 80 nM, 60 min at 25° C. In short, it runs like this: (§1)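 Fluorescence polarization competition using 5-carboxyfluorescein-labelled peptide probe AbuRPFK-5FAM; protein and compound preincubated 15 min, probe added, then 60 min at 25° C.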
(In general: In fluorescence polarisation assays a small probe gives low polarisation when free and higher when bound to something large.)

In a further experiment the target is T2, cIAP1-BIR3 (Homo sapiens, UniProt Q13490).
T2 construct: cIAP1-BIR3; purchased Reaction Biology APT-11-370
As to the kind of experiment: cIAP1-BIR3 fluorescence polarization binding assay. The settings on record: FP, probe AbuRPFK-5FAM (SM5F) 5 nM, cIAP1-BIR3 15 nM, 60 min at 25° C. In short, it runs like this: as §1

The next experiment has as its target T3, XIAP-BIR3 (Homo sapiens, UniProt P98170).
T3 construct: XIAP-BIR3; purchased Reaction Biology APT-11-374
As to the kind of experiment: XIAP-BIR3 fluorescence polarization binding assay. The settings on record: FP, probe AbuRPFK-5FAM (SM5F) 5 nM, XIAP-BIR3 40 nM, 60 min at 25° C. In short, it runs like this: as §1

The term IC50 denotes the concentration needed to halve the response being measured. A lower IC50 goes with greater potency in that assay.

T2 sequence (Q13490 253-363 limits assumed): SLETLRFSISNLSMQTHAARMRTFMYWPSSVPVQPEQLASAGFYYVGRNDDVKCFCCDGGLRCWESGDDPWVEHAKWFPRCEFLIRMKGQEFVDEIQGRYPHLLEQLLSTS
T3 sequence (P98170 241-356 limits assumed): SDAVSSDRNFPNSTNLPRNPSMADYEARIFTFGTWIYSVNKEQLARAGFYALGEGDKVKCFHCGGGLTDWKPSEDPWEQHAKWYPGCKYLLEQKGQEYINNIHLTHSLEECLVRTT
T1 sequence (Q13489 238-349 limits assumed): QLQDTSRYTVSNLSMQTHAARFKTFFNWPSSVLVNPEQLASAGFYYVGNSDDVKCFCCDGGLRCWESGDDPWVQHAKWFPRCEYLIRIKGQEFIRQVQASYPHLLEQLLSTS

On to `CN[C@@H](C)C(=O)NC(C(=O)N1CCC[C@H]1C(=O)N[C@@H]1CCCc2cc(N3CCN(c4ccc5c(c4)CCC[C@H]5NC(=O)[C@@H]4CCCN4C(=O)[C@@H](NC(=O)[C@H](C)NC)C4CCCCC4)CC3)ccc21)C1CCCCC1` (stereo partly drawn) [VIII-B, (2S)-1-[(2S)-2-cyclohexyl-2-[(2S)-2-(methylamino)propanamido]acetyl]-N-[1(1R)-6-[4-[(5R)-5-[(2S)-1-[(2S)-2-cyclohexyl-2-[(2S)-2-(methylamino)propanamido]acetyl]pyrrolidine-2-amido]-5,6,7,8-tetrahydronaphthalen-2-yl]piperazin-1-yl]-1,2,3,4-tetrahydronaphthalen-1-yl]pyrrolidine-2-carboxamide], for which the IC50 on cIAP2-BIR3 is 100 to 1000 nM; on cIAP1-BIR3, 10 to 100 nM; at XIAP-BIR3, above 1000 nM.
Turning to “(2S,4S)-1-((S)-2-cyclohexyl-2-((S)-2-(methylamino)propanamido)acetyl)-N—((R)-5-(2-(2-(((R)-5-((2S,4S)-1-((S)-2-cyclohexyl-2-((S)-2-(methylamino)propanamido)acetyl)-4-hydroxypyrrolidine-2-carboxamido)-5,6,7,8-tetrahydronaphthalen-1-yl)oxy)ethoxy) ethoxy)-1,2,3,4-tetrahydmnaphthalen-1-yl)-4-hydroxypyrrolidine-2-carboxamide Formic Acid [Compound II-C]”, the IC50 on cIAP2-BIR3 is 10 to 100 nM; at cIAP1-BIR3, 1 to 10 nM; on XIAP-BIR3, 10 to 100 nM.
